How the values were obtained:
[1] = test system: Human Astrocytes; assay: Cholesterol efflux (apoE4 lipidation) assay, BODIPY-cholesterol translocation to apoE4; assay type: cell-based; details: Astrocyte, Human astrocytes, efflux to apoE4
Protocol: Cholesterol efflux assay in HTS. CCF-STTG1 cells were plated in 384-well plates containing 50 μL/well RPMI supplemented with 10% FBS at a density of 5×10^3 cells/well, using a Multidrop 384 Reagent Dispenser (Thermo Scientific), and incubated for 48 hr. Cells were washed twice with 50 μl PBS using an EL406 Microplate Washer Dispenser (BioTek, Winooski, Vt., USA) before being labeled with 50 μl of 10 μM BODIPY-cholesterol+100 μM cyclodextrin (CD) in RPMI 1640 medium containing 0.2% BSA. The labeling medium was added using in a Washer Dispenser II (GNF, San Diego, Calif., USA). Plates were transferred automatically to a Liconic incubator (Mauren Principality of Liechtenstein) and incubated for 24 h. Subsequently, cells were washed twice as described above to remove external cholesterol. Next, 50 μl of the efflux medium was added, which contained recombinant apoE4 at a concentration of 40 μg/ml in transparent RPMI 1640 (no phenol red), again using Washer Dispenser II (GNF, San Diego, Calif., USA). The positive control contained the ABCA1 activator, CS-6253 (120 μg/ml) in addition to the acceptor (apoE4). After 7 hr of efflux, the medium was transferred to new plates, using the Bravo Automated Liquid Handling system (Agilent, Santa Clara, Calif., USA). Fluorescence polarization (FP) and fluorescence intensity (FI) of the medium were measured in a PheraStar FS plate reader (BMG Labtech, Ortenberg, Germany).
The apoE4 lipidation Assay is based on measurements of the ability of astrocytes to translocate fluorescently labelled cholesterol to recombinant non lipidated apoE4 and on the extent to which this effect is enhanced by treatment with each of the screened compounds (FIG. 2, 3). This assay is an adaptation of previous studies of cholesterol translocation from labelled astrocytes to external acceptors such as apoE4 [16], except that in order to differentiate between gene expression related effects and direct biochemical effects of the hits on ABCA1, the incubations of the HTS with the cells was limited to 8 hours. The extent to which the cells secret the labelled cholesterol and transfer it to non-lipidated apoE4 was determined by regular fluorescence as well as by fluorescence polarization microscopy. The latter technique in this context is used due to its sensitivity to particle size which decreases the background signal by differentiating between free and particle bound released cholesterol.
The assay was characterized biochemically and it was shown that translocation of labelled cholesterol to apoE4 is time and concentration dependent (FIG. 4) and was increased by the positive control ABCA1 agonistic 26mer peptide CS-6253 [4] (FIG. 5). The assay was used for high throughput screening (HTS) and selection of positive hits. 50,000 compounds from commercially available libraries were screened utilizing the double criteria of a signal greater than 3 standard deviations from the mean of all of the screened compounds, and being similar or greater than the apoE4 lipidation driven by the ABCA1 agonistic peptide CS-6253. Additional criteria included the tier drug ability value with tier 1 being best and tier 3 being least suitable, as well as a hydrophobicity value of 2<log P<5 value. This yielded 14 hits, designated Compounds #1-#14 (FIG. 6).

[2] = test system: apoE4 astrocytic cell line; assay: Cellular viability / cytotoxicity of the hits; assay type: cell-based, Rodent; details: 50 μM
Protocol: FIG. 10: Effects of test compounds (HTS hits) on cellular viability. Experiments were performed on apoE4 astrocytic cell line in the presence of 50 μM of the indicated compounds. Viability was measured microscopically and by measurements of total cellular protein. (ii) Measurements of cytotoxicity of the hits.

[3] = test system: Rodent Astrocytes; assay: In situ Aβ plaque digestion by apoE4 astrocytes (orthogonal assay); assay type: cell-based
Protocol: FIG. 7: Schematic representation of assay measuring in situ A$ plaque degradation by apoE3 and apoE4 astrocytes. The assay is designed to measure the ability of astrocytes to digest senile plaques from brain slides of APP mice, which is impaired in apoE4 expressing astrocytes.
FIG. 9: Activity of test compounds (HTS hits) in the plaque digestion assay. Positive control is CS-6253 (25 μg/ml). Test compound concentration is 50 μM.
In situ Aβ plaque degradation by apoE3 and apoE4 astrocytes. This assay is based on measurement of the ability of the astrocytes to clear Aβ plaques following their co-incubation with brain sections of 5×FAD mice, which contain Aβ plaques. Accordingly, 20 μm coronal frozen brain sections were prepared from 9-13-month-old 5×FAD mice using cryostat and placed on glass slides, 3-4 consecutive sections in each slide. The slides were kept at −80° C. until used. At the beginning of the experiment, the slices were incubated for 48 hr at 37° C. with apoE3 and apoE4 astrocytes (10^5 cells in 100 μl medium per slice) in the presence of 50 μM, or otherwise indicated concentrations, of the HTS hits. The slides were gently placed in round petri dishes with thick wet paper, surrounding the slides. PapPen was used to draw liquid repellent borders of the sections to avoid spillage of coating out of the slides. The slides were gently washed of all containing remains by placing them in PBS for 10 minutes, and were then fixated with 4% PFA for 10 minutes, followed by 0.1% Triton solution for 10 minutes. The slides were then incubated with blocking solution (8% Horse Serum, 0.3% Triton, 1 gr/ml BSA, 0.02% Sodium Azide in PBS) for 30 minutes after which they were immunohistochemically stained with primary anti-PAmyloid (6E10) antibody at a dilution of 1:750 in blocking solution for 1 hr at room temperature. This was then followed by washing (×5 with PBST) and incubation with the secondary antibody (Alexa Fluor® 488 donkey α-mouse IgG, A-21202 at dilution of 1:250 at room temperature for 45 minutes. Nuclei were stained with DAPI (Vektashield, Burlingame, Calif.; H-1200). Analysis of the Aβ plaque burden was performed as percentage of the area covered in plaques using the ImageJ software.
(i) Orthogonal assay which monitors the extent to which the hits can reverse the impaired ability of apoE4 astrocytes to digest Aβ senile plaques in vitro. The principle of this orthogonal assay is presented in FIGS. 7 & 8 [17], whereas the activity of the HTS hits in this assay is presented in FIG. 9.

[4] = test system: apoE4 TR mice; assay: Intraventricular Alzet pump administration to apoE4 TR mice, 11 days; assay type: in vivo; details: intraventricular pump 11 days, vs ACSF
Protocol: These experiments utilized the Alzet osmotic pump to administer labeled compounds #10 and N1 into the ventricles of apoE4 TR mice. The Alzet pumps administered 0.25 μl/hr of the compounds for 11 days. The reagents concentrations were […] for compounds #10 and N1, respectively, reaching estimated concentrations of 200 μM and 250 μM in the CSF. As control groups, apoE3 and apoE4 mice injected with artificial cerebrospinal fluid were used. Four groups, each containing 5 mice were used in the experiments. The total SDS levels in the different groups were measured. […] FIG. 16 depicts the results of the high molecular weight complexes indicating the increase in the apoE4 treated with compounds #10 and N1.
High AT180 corresponds to hyperphosphorylated tau which is pathological.

[5] = molecular target: T1, ECD1 of ABCA1 (Homo sapiens, UniProt O95477); assay: Microscale thermophoresis (MST) binding, label free protein; details: unlabelled ECD1
T1 construct: The proteins used in these experiments were Extra-Cellular Domain 1 (ECD1) of ABCA1 and Extra-Cellular Domain 2 (ECD2); purchased Biomatick
T1 sequence (O95477 43-639 limits assumed): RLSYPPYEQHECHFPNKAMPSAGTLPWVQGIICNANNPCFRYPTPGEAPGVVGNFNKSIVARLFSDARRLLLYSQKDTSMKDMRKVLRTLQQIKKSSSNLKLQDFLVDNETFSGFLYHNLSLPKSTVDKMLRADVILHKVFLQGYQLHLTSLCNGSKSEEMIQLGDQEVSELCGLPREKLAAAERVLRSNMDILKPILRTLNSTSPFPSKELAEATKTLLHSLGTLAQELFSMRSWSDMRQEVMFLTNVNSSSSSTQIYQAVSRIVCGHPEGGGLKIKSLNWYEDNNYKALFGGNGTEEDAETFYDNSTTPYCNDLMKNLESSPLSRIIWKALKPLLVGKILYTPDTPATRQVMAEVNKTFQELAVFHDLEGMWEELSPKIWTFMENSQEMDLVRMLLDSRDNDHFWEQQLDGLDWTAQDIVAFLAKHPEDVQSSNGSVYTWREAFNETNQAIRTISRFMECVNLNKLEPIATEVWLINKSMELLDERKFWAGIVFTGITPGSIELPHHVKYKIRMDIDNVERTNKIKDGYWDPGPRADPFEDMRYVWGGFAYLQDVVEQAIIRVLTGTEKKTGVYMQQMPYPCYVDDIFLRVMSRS
Protocol: Microscale thermophoresis (MST) measurements. MST measurements of the binding of the HTS hits to the extracellular domain (ECD) of ABCA1 were performed by two complimentary methods utilizing either fluorescently labeled proteins or the endogenous fluorescence of unlabeled proteins. This was pursued as follows:
The experiments were performed with the purified extracellual domains 1 (ECD1) and 2 (ECD2) of ABCA1 [18]. Two complementary MST tests were performed, in which either the proteins were labeled with a fluorescence moiety or the endogenous fluorescence of the unlabeled proteins was monitored).

| Binding to ECD1 (Label free MST) Amplitude [5] [a.u.] | Kd [5] [µM] | Compound | EC50 ([1]; Table 2) [µM] | EC50 ([1]; Table 4) [µM] | Viability Rodent Astrocytes ([2]; Table 2) | Viability Rodent Astrocytes ([2]; Table 4) | Plaque digestion assay (50 μM) Rodent Astrocytes ([3]; Table 2) [%] | Plaque digestion assay (50 μM) Rodent Astrocytes ([3]; Table 4) [%] | Hippocampal phosphorylated tau (AT180) [4] | Levels of high molecular weight lipidated ApoE4 (native gels) [4] | Total hippocampal ApoE4 levels (total SDS levels) [4] |
| --- | --- | --- | --- | --- | --- | --- | --- | --- | --- | --- | --- |
| – | – | Cc1cc(C)c(/C=C2\C(=O)Nc3ccccc32)[nH]1 [Hit #10] | > 44.8 | > 44.8 | Normal | Normal | 182 | 182 | reversed the pathology | increase | reversed the effect |
| 24.15 | 59 | Clc1cc(N2CCOCC2)c2nonc2c1 [Hit #99] | – | > 44.8 | – | – | – | – | – | – | – |
| – | – | O=C(O)CSc1cc(Cl)c2nonc2c1[N+](=O)[O-] [Hit N1] | – | – | – | – | – | – | reversed the pathology | increase | reversed the effect |

Source: patent US20230103965A1, “NOVEL ACTIVATORS OF THE LIPIDATING TRANSPORTER ATP BINDING CASSETTE PROTEIN TYPE 1 (AB-CA1) AND THERAPEUTIC USES THEREOF” (RAMOT AT TEL-AVIV UNIVERSITY LTD., priority 2020, published 2023)
